Reference: PubChem BioAssay (NCI)
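1) Cells in 96-well plates. 2) Compound, 48 h, 5 concentrations. 3) Linear interpolation between surrounding doses. 4) Unreached endpoint = highest concentration. Here, GI50 denotes the concentration required for 50% inhibition of growth. TGI is the concentration that stops growth completely.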

What was measured:
Assay in all cases: NCI tumour cell line growth inhibition, 48 h
[1] = test system: A549 NSCLC
[2] = test system: MALME-3M melanoma
[3] = test system: NCI-H226 lung
[4] = test system: NCI-H23 lung
[5] = test system: OVCAR-3 ovarian
[6] = test system: RXF 393 renal
[7] = test system: SF-268 CNS
[8] = test system: SF-539 CNS
[9] = test system: SK-MEL-28 melanoma
[10] = test system: TK-10 renal

| SMILES | TGI [1] [µM] | TGI [2] [µM] | TGI [3] [µM] | TGI [4] [µM] | TGI [5] [µM] | TGI [6] [µM] | TGI [7] [µM] | TGI [8] [µM] | TGI [9] [µM] | TGI [10] [µM] | GI50 [1] [nM] | GI50 [2] [nM] | GI50 [4] [nM] | GI50 [8] [nM] |
| --- | --- | --- | --- | --- | --- | --- | --- | --- | --- | --- | --- | --- | --- | --- |
| Cc1ccc(N2CCc3c(C)c(C#N)c4nc5ccccc5n4c32)cc1 | > 100 | > 100 | > 100 | > 100 | > 100 | > 100 | > 100 | > 100 | > 100 | > 100 |  |  |  |  |
| CC(C)(C)C1(COC(=O)c2ccc(N)cc2)COC1 | > 100 | > 100 | > 100 | > 100 | > 100 | > 100 | > 100 | > 100 | > 100 | > 100 |  |  |  |  |
| CCCNC(C#N)c1ccc(C(C#N)NCCC)cc1 (centres undefined) | > 100 | > 100 | > 100 | > 100 | > 100 | > 100 | > 100 | > 100 | > 100 | > 100 |  |  |  |  |
| CN(C)CCSC(=Nc1ccccc1)N1CCCCC1 | > 100 | 35.2 | 24.5 | 37.3 | 29.8 | 34.7 | 38.8 | 38.1 | 28 | 33.1 |  |  |  |  |
| O=C1Nc2cc([N+](=O)[O-])ccc2NC1/C(=N\Nc1ccccc1)C(O)c1cccc([N+](=O)[O-])c1 (centres undefined) | > 100 | > 100 | > 100 | > 100 | > 100 | > 100 | > 100 | > 100 | > 100 | > 100 |  |  |  |  |
| Cc1[nH]c2ccccc2c1C=Nc1ccc(N=Cc2c(C)[nH]c3ccccc23)cc1 | > 100 | > 100 | > 100 | > 100 | > 100 | > 100 | > 100 | > 100 | > 100 | > 100 |  |  |  |  |
| C=CCSC1=N/C(=C\c2ccccc2)C(=O)N1CC=C | > 100 | > 100 | > 100 | > 100 | > 93.9 | 60.6 | > 57.7 | > 100 | > 100 | > 100 |  |  |  |  |
| Cc1cccc(C2=NC(C)(C)C(C)(C)N=C2c2cccc(C)n2)n1 | > 100 | > 100 | > 100 | > 100 | > 100 | > 100 | > 100 | > 100 | > 100 | > 100 |  |  |  |  |
| O=C1Cc2c([nH]c3ccc(Br)cc23)-c2ccccc2N1 | > 100 | > 100 | > 100 | > 100 | > 100 | > 100 | > 100 | > 27.8 | > 100 | > 100 |  |  |  |  |
| Cc1nc2ccc(S(=O)(=O)O)cc2c(=O)n1-c1ccc(C(=O)NN2C(=O)C(Cl)C2c2ccccc2O)cc1 (centres undefined) | > 100 | > 100 | > 100 | > 100 | > 100 | > 100 | > 100 | > 100 | > 100 | > 100 |  |  |  |  |
| CN(C)CCNC(=O)c1cccc2nc3c(nc12)-c1ccccc1C3=O | 37.7 | 24.2 | 39.6 | 35.4 | 43.2 | 34.4 | 32.2 | 27 | 37.3 | 56.6 |  |  |  |  |
| COc1cc(CC2c3cc(OC)c(OC)cc3CCN2C)c(Oc2cc3c(cc2OC)-c2c(O)c(OC)cc4c2C(C3)N(C)CC4)cc1OC (centres undefined) | > 100 | 53.8 | 66.2 | 42.8 | > 100 | 9.35 | 46 | 30.3 | 63.2 | 51.3 |  |  |  |  |
| O=C(OCc1ccccc1)C1(N2CN(C3(C(=O)OCc4ccccc4)CCCC3)CN(C3(C(=O)OCc4ccccc4)CCCC3)C2)CCCC1 | > 10 | > 10 | > 10 | > 10 | > 10 | > 10 | > 10 | > 10 | > 10 | > 10 |  |  |  |  |
| O=C(N/N=C/c1cc(Cl)cc(Cl)c1[O-])c1ccccc1O.O=C(N/N=C/c1cc(Cl)cc(Cl)c1[O-])c1ccccc1O.[Ni+2] | 3.33 | 2.36 | 0.923 | 1.71 | 0.835 | 2.1 | 18.5 | 1.16 | 2.09 | 7.81 | 402 | 759 | 456 | 297 |
| CCOC(=O)/C=C(/C(=O)OCC)n1cc(C)c(=O)n(Cc2cn(COCCOC(C)=O)nn2)c1=O | > 100 | 23.7 | > 54 | 26.3 | 56.1 | > 70 | 48.2 | 38.1 | 57.1 | 29.2 |  |  |  |  |
| O=C(c1ccccc1)c1ccc2nc(-c3c(Cl)c(Cl)c(Cl)c(Cl)c3C(=O)N/N=C/c3ccccc3)[nH]c2c1 | > 100 | 83 | 79.8 | 80.9 | 54.3 | 73.2 | > 100 | > 100 | > 100 | > 100 |  |  |  |  |
| CCOc1nc(-c2ccccc2)cc(-c2ccc(N3CCOCC3)cc2)c1C#N | > 100 | > 100 | > 100 | > 100 | > 100 | > 100 | > 100 | > 100 | > 100 | > 100 |  |  |  |  |
| O=C1c2c(nc3ccccc3c2-c2ccccc2)CN1Nc1ccccn1 | > 100 | > 100 | > 89 | > 100 | > 100 | > 100 | > 100 | 99.5 | > 100 | > 100 |  |  |  |  |
| O=C1NC2(CCCCC2)C2CCCCCC12 (centres undefined) | > 100 | > 100 | > 100 | > 100 | > 100 | > 100 | > 100 | > 100 | > 100 | > 100 |  |  |  |  |

| SMILES | TGI [1] [µM] | TGI [2] [µM] | TGI [3] [µM] | TGI [4] [µM] | TGI [5] [µM] | TGI [6] [µM] | TGI [7] [µM] | TGI [8] [µM] | TGI [9] [µM] | TGI [10] [µM] | GI50 [1] [nM] | GI50 [2] [nM] | GI50 [4] [nM] | GI50 [8] [nM] |
| --- | --- | --- | --- | --- | --- | --- | --- | --- | --- | --- | --- | --- | --- | --- |
| Fc1ccc(N=NN2CCCC2)cc1 | > 100 | > 100 | > 100 | > 100 | > 100 | > 100 | > 100 | > 100 | > 100 | > 100 |  |  |  |  |
| c1ccc2c(c1)CCc1cc3cc4c(nc3nc1-2)-c1ccccc1CC4 | > 100 | > 100 | > 100 | > 100 | > 100 | > 100 | > 100 | > 100 | > 100 | > 100 |  |  |  |  |
| CC(C)c1ccc(/C=C2\CSCC3=C2NC(=S)NC3c2ccc(C(C)C)cc2)cc1 (centres undefined) | > 100 | > 100 | > 100 | > 100 | > 100 | > 100 | > 100 | > 100 | > 100 | > 100 |  |  |  |  |
| O=c1[nH]c(=O)n(Cc2ccccc2CO)cc1Sc1ccccc1 | 43.2 | 41.5 | 43.8 | 39.9 | 42.2 | 80.9 | 70.6 | 93.9 | > 100 | > 100 |  |  |  |  |
| COC(=O)/C=C(/C(=O)OC)c1c(C)c(C)c2c(C)cc(C)cc(C)c1-2 | > 100 | > 100 | 58.9 | > 100 | > 100 | > 100 | > 100 | > 100 | > 100 | > 100 |  |  |  |  |
| CCCCOP1(=O)C=C(C)C(=C(Cl)Cl)C(C)=C1 (centres undefined) | > 41.5 | 31.6 | 13 | 34.7 | 39.1 | 24.4 | 27.3 | 83.3 | 23.9 | 44.1 |  |  |  |  |
| NC(=S)Nc1[nH]c(=S)nc2c1SC1=N/C(=C\c3ccco3)C(=O)N12 | > 100 | > 83.3 | > 100 | > 100 | > 100 | > 100 | > 100 | > 100 | > 100 | > 100 |  |  |  |  |
| Oc1ccc(SCc2cc(O)c(O)c(O)c2)cc1 | > 100 | > 100 | 52.1 | > 100 | > 100 | > 100 | > 100 | > 100 | > 100 | > 100 |  |  |  |  |
| NC(=O)c1ccc2c(c1)S(=O)(=O)c1ccccc1C2=O | > 100 | > 100 | > 100 | > 100 | > 100 | > 100 | > 100 | > 100 | > 100 | > 100 |  |  |  |  |
| COc1cccc(N(CN2CC=CC2=O)C(C)=O)c1 | > 100 | > 100 | > 100 | > 100 | > 100 | > 100 | > 100 | > 100 | > 100 | > 100 |  |  |  |  |
| COC(=O)n1c(=O)n(-c2ccccc2)c(=O)n1C(=O)OC | > 100 | > 100 | > 100 | > 100 | > 100 | > 100 | > 100 | > 100 | > 100 | > 100 |  |  |  |  |
| CNC(=O)c1cc(NC(=O)N(CCC#N)CCN(C(=O)N[C@@H](Cc2ccccc2)C(=O)N[C@@H](CC(C)C)C(=O)NC)c2ccccc2)ccc1OC | > 100 | 38.5 | > 100 | > 100 | > 100 | 99.4 | > 65.7 | > 66.3 | > 61.9 | > 100 |  |  |  |  |
| CSc1c(C#N)c(=O)[nH]c2n[nH]c(C)c12 | > 100 | > 100 | > 100 | > 100 | > 100 | > 100 | > 100 | > 100 | > 100 | > 100 |  |  |  |  |
| c1ccc2c(c1)nc(NC1CCCC1)c1[nH]c(C3CCCC3)nc12 | 58.8 | 30.7 | 45.1 | 32.7 | 27.9 | 30.9 | 47 | 21.1 | 28.3 | > 93.3 |  |  |  |  |
| O=C1C(Br)=CC2(C=C1Br)CCNC1=C2C(=O)c2cccnc2C1=O | 30.1 | 21.5 | 36.9 | 18.2 | 17.9 | 21.3 | 32.2 | 20.9 | 29.3 | 35.9 |  |  |  |  |
| O=C1C=C(Br)c2c(Br)sc(Br)c21 | > 77.3 | 35.2 | 98.8 | 25.6 | 31.4 | 25.7 | > 57.3 | 18.2 | > 56.2 | 23.5 |  |  |  |  |
| Cc1sc(/N=C/c2c[nH]c3ccccc23)c(C#N)c1C | > 100 | > 100 | > 100 | > 100 | 66.1 | 74 | > 100 | > 100 | > 100 | 74.9 |  |  |  |  |
| CN(NC(=O)CCCl)C1=NCCCCN1 | > 100 | > 100 | > 100 | > 100 | > 100 | > 100 | > 100 | > 100 | > 100 | > 100 |  |  |  |  |
| COC(OC)C1OC(CO)C(n2ccc(N)nc2=O)C1O (centres undefined) | > 100 | > 100 | > 100 | > 100 | > 100 | > 100 | > 100 | > 100 | > 100 | > 100 |  |  |  |  |
